{
  "source": "patent US8586719B2",
  "about": "“Triterpenes for modulating gene expression and cell membrane, and as antiprotozoal agents” (Pacific Arrow Limited, priority 2005, dated 2013)",
  "key": {"[1]": {"tested_on": "Leishmania Major (promastigotes)", "assay": "Cell growth of Leishmania parasites by MTT assay", "assay_type": "cell-based", "conditions": "Leishmania major, read-out: IC50, cytotoxic to Leishmania Major (promastigotes)", "procedure": "Method: Leishmania parasites (Leishmania major: MRHO/SU/59/P/LV39) were grown in culture medium in a T75 flask at room temperature. Promastigotes of Leishmania major (approximately 40 million per ml) were used in the experiment. 1.2 ml cell culture was transferred to a well of the 24-wells plate. Saponin Y10 (0.2 ml in medium) with different concentrations (final 6.25-200 ug/ml) was added to culture and cells were grown for 1-5 days at room temperature. At the end of drug-treatment, 150 ul of MTT (5 mg/ml in PBS) was added to each well and incubated for 4 hours. Formazan formed in cells was dissolved with DMSO and the OD at 490 nm was determined by an ELISA reader."}, "[2]": {"tested_on": "ES2 (human ovarian cancer) xenograft tumor", "assay": "Genesis of blood vessels in xenograft tumor treated with compound Y", "assay_type": "in vivo, Athymic Nu/Nu mice", "conditions": "ES2 i.p. xenograft, 2.5 mg/kg i.p. daily days 10-15 and 18-22, H&E sections", "procedure": "Method: Athymic Nu/Nu mice (5-6 weeks old) are divided into two groups (1 and 2) with 5 animals in each group. On day 0, all mice were transplanted intra-peritoneally with one million ES2 (human ovarian cancer) cells. Animals were randomly divided into two groups:\nGroup 2: Drug-treatment group. On days 10-15 and 18-22, animals received daily drug administration of Xanifolia-Y, by i.p. route at dosage of 2.5 mg/kg.\nAnimals with high tumor burden were euthanized and solid tumors were taken out from these mice (between 18-27 days). Tumor tissues fixed with formalin at room temperature. The fixed tissues were sectioned and stained with Haematoxylin and eosin (H&E). The red blood cells inside the micro blood vessels were identified under a microscope."}, "Fibronectin [3]": {"tested_on": "Fibronectin", "assay": "Fibronectin secretion, bladder carcinoma cells (HTB-9)", "assay_type": "cell-based, human", "conditions": "Homo sapiens; Bladder HTB-9; 10 ug/ml (table: label suffix -10)", "procedure": "(§1) Reduction of Fibronectin secretion from ES2 cells after xanifolia-Y treatment. • (Results of F1, F3, F4, F5, F7, F8, F11, F12A, F15, F16, F17) Data in PCT/US2008/002086, 1188-ALA-PCT, filed Feb. 15, 2008 are incorporated herein by reference • (F11) For lung carcinoma cells (H460), at concentration of 20 ug/ml, there are inhibitions of Fibronectin secretion ranged from 20-60%. • (F12A) For bladder carcinoma cells (HTB-9), Xanifolia-Y (10 ug/ml) inhibits 50% of Fibronectin secretion. • (F15) In liver HepG2 cells. 10 ug/ml of xanifolia-Y inhibits 42% secretion of Fibronectin. • (F16) Incubation of brain glioblastoma T98G cells with 10 ug/ml of xanifolia-Y inhibits 27% Fibronectin secretion and with 20 ug/ml Y inhibits 74% Fibronectin secretion. • (F17) For skin SK-MeI-5 cells, the inhibition is 40-57% with 20 ug/ml of Xanifolia-Y."}, "Fibronectin [4]": {"tested_on": "Fibronectin", "assay": "Fibronectin secretion, brain glioblastoma T98G cells", "assay_type": "cell-based, human", "conditions": "Homo sapiens, T98G", "procedure": "as §1"}, "Fibronectin [5]": {"tested_on": "Fibronectin", "assay": "Fibronectin secretion, skin SK-MEL-5 cells", "assay_type": "cell-based, human", "conditions": "Homo sapiens, SK-MEL-5; skin SK-MeI-5 cells; 20 ug/ml", "procedure": "as §1"}, "Glypican 6 (GPC6)": {"tested_on": "Glypican 6 (GPC6)", "assay": "Microarray gene expression in ES2 cells: Glypican", "assay_type": "cell-based, human", "text": "(§2) The composition comprises bioactive compounds from natural plants or synthesis. The majority of the plants are from the Sapindaceae family, which has 140-150 genera with 1400-2000 species. The program is based on our purification methods and biological assays including the MTT assay See International Application No. PCT/US05/31900, filed Sep. 7, 2005, U.S. Ser. No. 11/289,142, filed Nov. 28, 2005, and U.S. Ser. No. 11/131,551, filed May 17, 2005, and PCT/US2008/002086, 1188-ALA-PCT, filed Feb. 15, 2008, the contents of which are incorporated herein by reference. The details of Analysis of gene expression of ES2 cells after Y-treatment by Microarray, Data Analysis Methods and Western blot in PCT/US2008/002086, 1188-ALA-PCT, filed Feb. 15, 2008, the contents of which are incorporated herein by reference"}, "thrombospondin 1 (THBS1)": {"tested_on": "thrombospondin 1 (THBS1)", "assay": "Microarray gene expression in ES2 cells: thrombospondin", "assay_type": "cell-based, human", "text": "as §2"}, "[6]": {"tested_on": "insulin-like growth factor binding protein 3 (IGFBP3)", "assay": "Microarray gene expression in ES2 cells: IGFBP3", "assay_type": "cell-based, human", "text": "as §2"}, "[7]": {"tested_on": "insulin-like growth factor binding protein 4 (IGFBP4)", "assay": "Microarray gene expression in ES2 cells: IGFBP4", "assay_type": "cell-based, human", "conditions": "probe set 201508_at", "text": "as §2"}, "[8]": {"tested_on": "insulin-like growth factor binding protein 1 (IGFBP1)", "assay": "Microarray gene expression in ES2 cells: IGFBP1", "assay_type": "cell-based, human", "conditions": "probe set 205302_at", "text": "as §2"}, "[9]": {"tested_on": "insulin-like growth factor binding protein 7 (IGFBP7)", "assay": "Microarray gene expression in ES2 cells: IGFBP7", "assay_type": "cell-based, human", "conditions": "probe set 201163_s_at", "text": "as §2"}, "[10]": {"tested_on": "potassium channel, subfamily U, member 1 (KCNU1)", "assay": "Microarray gene expression in ES2 cells: potassium channel", "assay_type": "cell-based, human", "conditions": "ID 237273_at", "text": "as §2"}, "leptin": {"tested_on": "leptin", "assay": "Expression of leptin", "assay_type": "cell-based"}, "[11]": {"tested_on": "LIF (Leukemia inhibitory factor)", "assay": "Gene expression by Real-time PCR: LIF", "assay_type": "cell-based", "conditions": "DMSO control = 100", "text": "(§3) Determination of gene expression by Real-time PCR method (Brilliant QPCR, Agilent Technologies): The real-time polymerase chain reactions further confirm the results obtained from micro array analysis. The Real-time PCR results (shown below) confirmed that Compound Y3 and YM increase the expression of the genes: ANGPT2, DDIT3, LIF and NFKB1Z"}, "[12]": {"tested_on": "NFKB1Z (nuclear factor of kappa light polypeptide gene enhancer in B-cells inhibitor, zeta)", "assay": "Gene expression by Real-time PCR: NFKB1Z", "assay_type": "cell-based", "conditions": "DMSO control = 100", "text": "as §3"}, "ITGAV (integrin alpha V)": {"tested_on": "ITGAV (integrin alpha V)", "assay": "Gene expression by Real-time PCR: ITGAV", "assay_type": "cell-based", "conditions": "control = 100", "text": "as §3"}, "[13]": {"tested_on": "COL1A1 (collagen type 1 alpha 1)", "assay": "Gene expression by Real-time PCR: COL1A1", "assay_type": "cell-based", "conditions": "control = 100"}, "LAMA4 (laminin alpha 4)": {"tested_on": "LAMA4 (laminin alpha 4)", "assay": "Gene expression by Real-time PCR: LAMA4", "assay_type": "cell-based", "conditions": "control = 100", "text": "as §3"}},
  "data": [
    {"smiles": "C/C=C(/C)C(=O)O[C@H]1[C@H](OC(=O)/C(C)=C\\C)[C@@]2(CO)C(CC1(C)C)C1=CCC3[C@@]4(C)CC[C@H](O[C@@H]5OC(C(=O)O)[C@@H](O)[C@@H](O[C@@H]6O[C@@H](CO)[C@@H](O)C6O)C5O[C@@H]5OC(CO)[C@H](O)[C@@H](O)C5O)C(C)(C)C4CC[C@@]3(C)[C@]1(C)[C@@H](O)[C@H]2O", "note": "(stereo partly drawn) [Y, 3-O-[β-D-galactopyranosyl(1→2)]-α-L-arabinofuranosy (1→3)-β-D-glucuronopyranosyl-21,22-O-diangeloyl-3β, 15α, 16α, 21β, 22α, 28-hexahydroxyolean-12-ene]", "values": [
      {"measurement": "IC50", "setting": "[1]", "value": 15, "unit": "µg/mL"},
      {"measurement": "blood vessels in tumor sections", "setting": "[2]; listed as Xanifolia Y", "value": "More blood vessels were observed in the control Group 1 than those in the drug-treated Group 2"},
      {"measurement": "blood vessels in tumor sections", "setting": "[2]; listed as Xanifolia-Y", "value": "more blood vessels were observed in the control Group1 than those in the drug-treated Group 2"},
      {"measurement": "inhibition at 10 µg/mL", "setting": "Fibronectin [3]", "value": 50, "unit": "%"},
      {"measurement": "inhibition at 10 µg/mL", "setting": "Fibronectin [4]; read-out: % inhibition of Fibronectin secretion", "value": 27, "unit": "%"},
      {"measurement": "inhibition at 20 µg/mL", "setting": "Fibronectin [4]; read-out: inhibition of Fibronectin secretion", "value": 74, "unit": "%"},
      {"measurement": "inhibition at 20 µg/mL", "setting": "Fibronectin [5]", "value": "40 to 57", "unit": "%"},
      {"measurement": "GPC6 expression, treated/D (DMSO control)", "setting": "Glypican 6 (GPC6); probe set 227059_at", "value": "−2.2"},
      {"measurement": "GPC6 expression, treated/D (DMSO control)", "setting": "Glypican 6 (GPC6); probe set 243865_x_at", "value": "−2.7"},
      {"measurement": "THBS1 expression, treated/D (DMSO control)", "setting": "thrombospondin 1 (THBS1); probe set 201108_s_at", "value": "−1.7"},
      {"measurement": "THBS1 expression, treated/D (DMSO control)", "setting": "thrombospondin 1 (THBS1); probe set 201109_s_at", "value": "−2.0"},
      {"measurement": "THBS1 expression, treated/D (DMSO control)", "setting": "thrombospondin 1 (THBS1); probe set 201110_s_at", "value": "−1.8"},
      {"measurement": "IGFBP3 expression, treated/D (DMSO control)", "setting": "[6]; probe set 210095_s_at", "value": "−4.0"},
      {"measurement": "IGFBP3 expression, treated/D (DMSO control)", "setting": "[6]; probe set 212143_s_at", "value": "−3.7"},
      {"measurement": "IGFBP4 expression, treated/D (DMSO control)", "setting": "[7]", "value": "−1.7"},
      {"measurement": "IGFBP1 expression, treated/D (DMSO control)", "setting": "[8]", "value": "−1.7"},
      {"measurement": "IGFBP7 expression, treated/D (DMSO control)", "setting": "[9]", "value": "−1.4"},
      {"measurement": "KCNU1 expression, treated/D (DMSO control)", "setting": "[10]", "value": "−4.0"},
      {"measurement": "expression of leptin", "setting": "leptin", "value": "inhibit"},
      {"measurement": "LIF expression, % of control", "setting": "[11]", "value": "163 % of control"},
      {"measurement": "NFKB1Z expression, % of control", "setting": "[12]", "value": "142.9 % of control"},
      {"measurement": "ITGAV expression, % of control", "setting": "ITGAV (integrin alpha V)", "value": "63.8 % of control"},
      {"measurement": "COL1A1 expression, % of control", "setting": "[13]", "value": "49.9 % of control"},
      {"measurement": "LAMA4 expression, % of control", "setting": "LAMA4 (laminin alpha 4)", "value": "53.6 % of control"}
    ]}
  ]
}
